By IC50 is commonly meant the concentration needed to halve the response being measured. A high value points to weaker potency.

Numbered stars: 1 amine (or outer) side, 2 acyl side, 3 side chain; on linkers, the order of the positions; unused ones are H or OH. Square brackets hold non-standard residues; d marks the D form. Peptide text beside a SMILES is read from it. * marks the point of attachment. Ala(1H-tetrazol-5-yl) = N[C@@H](Cc1nnn[nH]1)C(=O)O; Gly(cPent) = N[C@H](C(=O)O)C1CCCC1; X1 = C[C@H](N[*:1])C(=O)C(=O)[*:2]; Chg = N[C@H](C(=O)O)C1CCCCC1; OAll = C=CCO*

The target of this experiment is Subtilisin-like protease 1 (Plasmodium vivax). Nature of the experiment: Inhibition of Plasmodium vivax SUB1 catalytic domain.
The molecule `C=CCOC(=O)CC[C@H](NC(=O)[C@H](CC(=O)O)NC(=O)C(=O)[C@H](C)NC(=O)[C@H](C)NC(=O)[C@@H](NC(=O)[C@@H](NC(C)=O)C1CCCC1)[C@@H](C)O)C(N)=O` showed an IC50 of 70 nM. This lies in the double-digit nanomolar range. In the case of `C=CCOC(=O)CC[C@H](NC(=O)[C@H](CC(=O)O)NC(=O)C(=O)[C@H](C)NC(=O)[C@H](C)NC(=O)[C@@H](NC(=O)[C@@H](NC(C)=O)[C@@H](C)CC)[C@@H](C)O)C(N)=O` (Ac-ITA[X1]DE(OAll)-NH2), the IC50 amounted to 100 nM. The molecule `C=CCOC(=O)CC[C@H](NC(=O)[C@H](Cc1nnn[nH]1)NC(=O)C(=O)[C@H](C)NC(=O)[C@H](C)NC(=O)[C@@H](NC(=O)[C@@H](NC(C)=O)[C@@H](C)CC)[C@@H](C)O)C(N)=O` (Ac-ITA[X1][Ala(1H-tetrazol-5-yl)]E(OAll)-NH2) gave an IC50 of 2220 nM. Consider `C=CCOC(=O)CC[C@H](NC(=O)[C@H](CC(=O)O)NC(=O)C(=O)[C@H](C)NC(=O)[C@H](C)NC(=O)[C@@H](NC(=O)[C@@H](NC(C)=O)C1CCCCC1)[C@@H](C)O)C(N)=O` (Ac-[Chg]TA[X1]DE(OAll)-NH2), for which the IC50 was determined as 150 nM. Against the preceding molecule, the IC50 is about 15-fold lower. `CC(=O)N[C@H](C(=O)N[C@H](C(=O)N[C@@H](C)C(=O)N[C@@H](C)C(=O)C(=O)N[C@@H](CC(=O)O)C(N)=O)[C@@H](C)O)C1CCCC1` (Ac-[Gly(cPent)]TA[X1]D-NH2) returned an IC50 of 150 nM.

Values taken from BindingDB's records for PubMed 38503166 (University of Paris).
